Assays:
[1] = target: TrkA kinase (Homo sapiens, UniProt P04629); assay: TrkA kinase biochemical activity assay (AlphaScreen); conditions: 100 μM ATP; read-out: Biochemical Inhibition IC50 TrkA
In short: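 Recombinant TrkA with 30 nM biotin-(E4Y)10 and 100 μM ATP in 25 mM Hepes pH 7.5, 10 mM MnCl2, 5% DMSO, 40 min at room temperature. Phosphorylation read by AlphaScreen (streptavidin donor, PY20 acceptor beads); IC50 from signal vs compound concentration. TrkC run similarly.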

[2] = target: T1, BCR-NTRK3 BaF3 cells (Homo sapiens, UniProt Q16288); assay: BaF3 BCR-NTRK3 cell proliferation assay (ATPlite); type: cell-based; conditions: read-out: Inhibition of Cell Proliferation IC50, BCR/BaF3 TrkC
T1 construct: fused on or other part: P11274 (Breakpoint cluster region protein)
In short: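 BaF3 cells expressing BCR fusions were plated at 10,000 cells/well without IL-3, and MV-4-11 cells at 25,000 cells/well. Cells were treated the next day with an 8-point 1:3 dilution series (top 10 μM final) and incubated 3 days at 37 °C. ATPlite luminescence gave cell number, from which IC50 was fitted.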

[3] = tested on: SKNSH cells; assay: SKNSH (human neuroblastoma) cell proliferation assay (ATPlite); type: cell-based; conditions: SK-N-SH, read-out: Inhibition of Cell Proliferation IC50, SKNSH
In short: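 SK-N-SH human neuroblastoma cells grown in RPMI with 10% FBS were pelleted, resuspended at 2×10^4 cells/mL, and plated at 3,000 cells per well (150 μL) in 96-well plates, then kept overnight at 37° C. in 5% CO2. Compounds in an 8-point 1:3 DMSO series were added as 0.75 μL aliquots.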

Chain of TrkA kinase (P04629 33-796): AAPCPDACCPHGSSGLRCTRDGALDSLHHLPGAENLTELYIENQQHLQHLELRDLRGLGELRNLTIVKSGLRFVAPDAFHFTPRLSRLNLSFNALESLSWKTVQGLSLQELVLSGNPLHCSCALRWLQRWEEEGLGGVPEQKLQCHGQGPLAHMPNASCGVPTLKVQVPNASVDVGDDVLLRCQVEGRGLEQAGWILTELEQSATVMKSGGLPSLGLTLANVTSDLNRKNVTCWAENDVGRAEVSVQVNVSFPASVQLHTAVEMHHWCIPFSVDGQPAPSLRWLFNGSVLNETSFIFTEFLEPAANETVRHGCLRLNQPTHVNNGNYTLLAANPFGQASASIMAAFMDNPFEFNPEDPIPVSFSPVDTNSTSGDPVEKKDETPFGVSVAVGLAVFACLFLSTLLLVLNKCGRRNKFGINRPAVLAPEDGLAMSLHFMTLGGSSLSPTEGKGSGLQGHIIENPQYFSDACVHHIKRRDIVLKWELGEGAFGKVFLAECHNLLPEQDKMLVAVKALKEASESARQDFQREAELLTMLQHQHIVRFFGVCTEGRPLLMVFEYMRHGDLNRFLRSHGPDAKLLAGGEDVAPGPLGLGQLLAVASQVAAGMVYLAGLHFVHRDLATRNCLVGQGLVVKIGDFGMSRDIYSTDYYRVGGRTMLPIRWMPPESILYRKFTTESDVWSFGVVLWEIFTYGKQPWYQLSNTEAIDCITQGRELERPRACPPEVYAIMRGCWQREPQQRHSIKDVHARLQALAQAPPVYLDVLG
T1 sequence (Q16288 whole entry, the tested form may be a part): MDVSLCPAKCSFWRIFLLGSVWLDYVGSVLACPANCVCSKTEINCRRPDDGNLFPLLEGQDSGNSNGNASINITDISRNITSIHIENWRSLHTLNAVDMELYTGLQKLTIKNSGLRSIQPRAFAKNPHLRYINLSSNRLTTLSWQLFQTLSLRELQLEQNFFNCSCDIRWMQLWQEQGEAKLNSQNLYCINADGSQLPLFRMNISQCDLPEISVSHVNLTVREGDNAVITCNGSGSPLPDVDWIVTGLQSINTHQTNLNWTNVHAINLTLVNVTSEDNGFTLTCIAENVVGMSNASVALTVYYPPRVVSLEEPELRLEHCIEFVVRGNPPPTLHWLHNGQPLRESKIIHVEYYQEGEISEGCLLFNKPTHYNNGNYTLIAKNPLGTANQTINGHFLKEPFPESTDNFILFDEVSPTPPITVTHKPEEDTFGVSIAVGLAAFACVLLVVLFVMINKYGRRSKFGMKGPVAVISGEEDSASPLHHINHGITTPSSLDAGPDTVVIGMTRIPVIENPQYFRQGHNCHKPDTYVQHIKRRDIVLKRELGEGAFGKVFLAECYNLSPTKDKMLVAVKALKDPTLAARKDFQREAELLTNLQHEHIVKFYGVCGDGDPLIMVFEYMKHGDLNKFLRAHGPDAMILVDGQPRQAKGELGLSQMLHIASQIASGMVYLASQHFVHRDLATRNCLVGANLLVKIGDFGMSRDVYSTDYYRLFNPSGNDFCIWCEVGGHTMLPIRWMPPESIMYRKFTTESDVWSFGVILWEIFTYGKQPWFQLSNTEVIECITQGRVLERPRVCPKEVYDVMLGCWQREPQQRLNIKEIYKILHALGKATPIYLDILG

IC50 [1] [nM]	IC50 [2] [nM]	IC50 [3] [nM]	Structure (SMILES)
< 10	< 10	< 10000	Fc1nc(Nc2ccc(C3CC3)nc2)ccc1Cc1c[nH]c2ncnc(NCC(F)(F)F)c12 [Compound P-4130, 5-[[6-[(6-cyclopropyl-3-pyridyl)amino]-2-fluoro-3-pyridyl]methyl]-N-(2,2,2-trifluoroethyl)-7H-pyrrolo[2,3-d]pyrimidin-4-amine]
< 1000	< 1000	> 25000	Cc1cnc2[nH]cc(Cc3cnc(Nc4cc(C(C)(C)C)n[nH]4)nc3)c2c1 [Compound P-3029, (5-tert-Butyl-2H-pyrazol-3-yl)-[5-(5-methyl-1H-pyrrolo[2,3-b]pyridin-3-ylmethyl)-pyrimidin-2-yl]-amine]
< 1000	< 1000	< 1000	CCOc1ncnc2[nH]cc(Cc3ccc(Nc4cccnc4)nc3F)c12 [Compound P-4021, [5-(4-Ethoxy-7H-pyrrolo[2,3-d]pyrimidin-5-ylmethyl)-6-fluoro-pyridin-2-yl]-pyridin-3-yl-amine]
< 10	< 10	< 1000	CCc1ccc(Nc2ccc(Cc3c[nH]c4ncnc(OC)c34)c(F)n2)cn1 [Compound P-4007, (6-Ethyl-pyridin-3-yl)-[6-fluoro-5-(4-methoxy-7H-pyrrolo[2,3-d]pyrimidin-5-ylmethyl)-pyridin-2-yl]-amine]
< 100	< 10	< 1000	COc1ncnc2[nH]cc(Cc3ccc(Nc4ccc(C5CC5)nc4)nc3F)c12 [Compound P-4004, (6-Cyclopropyl-pyridin-3-yl)-[6-fluoro-5-(4-methoxy-7H-pyrrolo[2,3-d]pyrimidin-5-ylmethyl)-pyridin-2-yl]-amine]
< 100	< 100	< 20000	Cc1cnc2[nH]cc(Cc3cnc(Nc4cc(-c5ccc(F)cc5)n[nH]4)nc3)c2c1 [Compound P-3028, [5-(4-Fluoro-phenyl)-2H-pyrazol-3-yl]-[5-(5-methyl-1H-pyrrolo[2,3-b]pyridin-3-ylmethyl)-pyrimidin-2-yl]-amine]
< 100	< 10	< 1000	CCOc1ccc(Nc2ccc(Cc3c[nH]c4ncnc(OC)c34)c(F)n2)cn1 [Compound P-4005, (6-Ethoxy-pyridin-3-yl)-[6-fluoro-5-(4-methoxy-7H-pyrrolo[2,3-d]pyrimidin-5-ylmethyl)-pyridin-2-yl]-amine]
< 10	< 10	< 100	CCc1ccc(Nc2ccc(Cc3c[nH]c4ncnc(C)c34)c(F)n2)cn1 [Compound P-4009, (6-Ethyl-pyridin-3-yl)-[6-fluoro-5-(4-methyl-7H-pyrrolo[2,3-d]pyrimidin-5-ylmethyl)-pyridin-2-yl]-amine]
< 1000	< 100	< 1000	COc1ncnc2[nH]cc(Cc3ccc(Nc4ccc(C)nc4)nc3F)c12 [Compound P-4010, [6-Fluoro-5-(4-methoxy-7H-pyrrolo[2,3-d]pyrimidin-5-ylmethyl)-pyridin-2-yl]-(6-methyl-pyridin-3-yl)-amine]
< 100	< 10	< 100	CCOc1ccc(Nc2ccc(Cc3c[nH]c4ncnc(C)c34)c(F)n2)cn1 [Compound P-4006, (6-Ethoxy-pyridin-3-yl)-[6-fluoro-5-(4-methyl-7H-pyrrolo[2,3-d]pyrimidin-5-ylmethyl)-pyridin-2-yl]-amine]
< 100	< 100	> 1000	CCOc1ccc(Nc2ccc(C(=O)c3c[nH]c4ncnc(OC)c34)c(F)n2)cn1 [Compound P-4024, [6-(6-Ethoxy-pyridin-3-ylamino)-2-fluoro-pyridin-3-yl]-(4-methoxy-7H-pyrrolo[2,3-d]pyrimidin-5-yl)-methanone]
< 100	< 100	> 1000	COCCOc1ncnc2[nH]cc(Cc3ccc(Nc4ccc(OC)nc4)nc3F)c12 [Compound P-4019, {6-Fluoro-5-[4-(2-methoxy-ethoxy)-7H-pyrrolo[2,3-d]pyrimidin-5-ylmethyl]-pyridin-2-yl}-(6-methoxy-pyridin-3-yl)-amine]
< 10	< 100	< 1000	CSc1ccc(Nc2ncc(Cc3c[nH]c4ncc(C)cc34)cn2)cc1 [Compound P-3033, [5-(5-Methyl-1H-pyrrolo[2,3-b]pyridin-3-ylmethyl)-pyrimidin-2-yl]-(4-methylsulfanyl-phenyl)-amine]
< 100	< 100	< 1000	Cc1cnc2[nH]cc(C(=O)c3ccc(Nc4ccc(C)nc4)nc3F)c2c1 [Compound P-3043, [2-Fluoro-6-(6-methyl-pyridin-3-ylamino)-pyridin-3-yl]-(5-methyl-1H-pyrrolo[2,3-b]pyridin-3-yl)-methanone]
< 100	< 100	< 1000	CCOc1ncnc2[nH]cc(Cc3ccc(Nc4ccc(C)nc4)nc3F)c12 [Compound P-4017, [5-(4-Ethoxy-7H-pyrrolo[2,3-d]pyrimidin-5-ylmethyl)-6-fluoro-pyridin-2-yl]-(6-methyl-pyridin-3-yl)-amine]
< 100	< 10	< 1000	CCOc1ncnc2[nH]cc(Cc3ccc(Nc4ccc(OC)nc4)nc3F)c12 [Compound P-4018, [5-(4-Ethoxy-7H-pyrrolo[2,3-d]pyrimidin-5-ylmethyl)-6-fluoro-pyridin-2-yl]-(6-methoxy-pyridin-3-yl)-amine]
< 100	< 100	> 1000	CCOc1ncnc2[nH]cc(Cc3ccc(Nc4cnn(CC)c4)nc3F)c12 [Compound P-4012, [5-(4-Ethoxy-7H-pyrrolo[2,3-d]pyrimidin-5-ylmethyl)-6-fluoro-pyridin-2-yl]-(1-ethyl-1H-pyrazol-4-yl)-amine]
< 10	< 100	> 25000	CCOc1ccc(Nc2ccc(C(=O)c3c[nH]c4ncc(C)cc34)c(F)n2)cn1 [Compound P-3045, [6-(6-ethoxy-pyridin-3-ylamino)-2-fluoro-pyridin-3-yl]-(5-methyl-1H-pyrrolo[2,3-b]pyridin-3-yl)-methanone]
< 1000	< 100	> 1000	Fc1nc(NC2CCC(F)(F)CC2)ccc1Cc1c[nH]c2ncnc(NCC(F)(F)F)c12 [Compound P-4128, 5-[[6-[(4,4-difluorocyclohexyl)amino]-2-fluoro-3-pyridyl]methyl]-N-(2,2,2-trifluoroethyl)-7H-pyrrolo[2,3-d]pyrimidin-4-amine]
< 100	< 100	< 100	COc1ccc(Nc2ccc(Cc3c[nH]c4ncnc(C)c34)c(F)n2)cn1 [Compound P-4002, [6-Fluoro-5-(4-methyl-7H-pyrrolo[2,3-d]pyrimidin-5-ylmethyl)-pyridin-2-yl]-(6-methoxy-pyridin-3-yl)-amine]
< 10	< 10	> 1000	CCc1ccc(Nc2ccc(Cc3c[nH]c4ncnc(OCCOC)c34)c(F)n2)cn1 [Compound P-4016, (6-Ethyl-pyridin-3-yl)-{6-fluoro-5-[4-(2-methoxy-ethoxy)-7H-pyrrolo[2,3-d]pyrimidin-5-ylmethyl]-pyridin-2-yl}-amine]
< 100	< 10	< 1000	CCc1ccc(Nc2ncc(Cc3c[nH]c4ncc(C)cc34)cn2)cc1 [Compound P-3025, (4-Ethyl-phenyl)-[5-(5-methyl-1H-pyrrolo[2,3-b]pyridin-3-ylmethyl)-pyrimidin-2-yl]-amine]
< 100	< 10	< 100	Cc1cnc2[nH]cc(Cc3cnc(Nc4ccc(C(O)(C(F)(F)F)C(F)(F)F)cc4)nc3)c2c1 [Compound P-3031, 1,1,1,3,3,3-Hexafluoro-2-{4-[5-(5-methyl-1H-pyrrolo[2,3-b]pyridin-3-ylmethyl)-pyrimidin-2-ylamino]-phenyl}-propan-2-ol]
< 100	< 10	< 1000	COc1ccc(Nc2ccc(Cc3c[nH]c4ncnc(OC)c34)c(F)n2)cn1 [Compound P-4001, [6-Fluoro-5-(4-methoxy-7H-pyrrolo[2,3-d]pyrimidin-5-ylmethyl)-pyridin-2-yl]-(6-methoxy-pyridin-3-yl)-amine]
< 1000	< 100	> 10000	Fc1nc(NC2CCC(F)(F)CC2)ccc1Cc1c[nH]c2ncnc(NC3CC3)c12 [Compound P-4129, N-cyclopropyl-5-[[6-[(4,4-difluorocyclohexyl)amino]-2-fluoro-3-pyridyl]methyl]-7H-pyrrolo[2,3-d]pyrimidin-4-amine]
> 1000	< 100	> 25000	CCOc1ccc(Nc2ncc(Cc3c[nH]c4ncc(C)cc34)cn2)cc1 [Compound P-3026, (4-Ethoxy-phenyl)-[5-(5-methyl-1H-pyrrolo[2,3-b]pyridin-3-ylmethyl)-pyrimidin-2-yl]-amine]
< 1000	< 100	> 25000	CCOc1ccc(Nc2ncc(Cc3c[nH]c4ncc(C)cc34)cn2)cn1 [Compound P-3027, (6-Ethoxy-pyridin-3-yl)-[5-(5-methyl-1H-pyrrolo[2,3-b]pyridin-3-ylmethyl)-pyrimidin-2-yl]-amine]

Source: patent US8901118B2, “Compounds and methods for kinase modulation, and indications therefor” (Plexxikon Inc., priority 2010, dated 2014)
